Our source for the TGI values is PubChem BioAssay (NCI).

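Method: 48-hour compound exposure of cells in 96-well plates, five concentrations, linear interpolation of endpoints. TGI denotes the concentration required for complete inhibition of growth.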 *1 amine or outer side, *2 acyl side, *3 side chain or, on linkers, in order; H or OH if unused. Where a SMILES comes first, the peptide text is derived from it. Bridges are numbered along the chain shown (N, C = ends). [ ]: non-standard residue; d: D form. The star is where a group is joined. ξ: configuration not given here. X34 = O=C(C(CCCCNO[*:3])N[*:1])[*:2]; Fmoc = O=C(OCC1c2ccccc2-c2ccccc21)*; ξW = NC(Cc1c[nH]c2ccccc12)C(=O)O; ξP = O=C(O)C1CCCN1

Assay in all cases: inhibition of tumour cell growth, NCI panel, 48 h
Experiment [1] has as its system RXF 393 renal.
Experiment [2] has as its system SN12C renal.
Experiment [3] relates to NCI-H226 lung.
For experiment [4], the system named is T-47D breast.
Experiment [5] concerns RPMI-8226 leukemia.
The subject of experiment [6] is KM12 colon.
Experiment [7] has as its system HOP-62 NSCLC.
The subject of experiment [8] is SW-620 colon.
The subject of experiment [9] is TK-10 renal.
Experiment [10] deals with EKVX NSCLC.

`c1ccc2c(c1)OC(N1CCCC1)c1cnc(N3CCCC3)nc1-2` (stereo not given): the TGI in experiment [1] is 47.8 µM; in [2] it was greater than 100 µM; in experiment [3], greater than 100 µM; in experiment [4], 93.3 µM; in experiment [5], 45.8 µM; in experiment [6], greater than 100 µM. Also, the TGI in experiment [7] is greater than 100 µM; in experiment [8] it was greater than 100 µM; in experiment [9] it was greater than 100 µM; in experiment [10], 58.5 µM.
In the case of `NC(=O)CNC(=O)C1CCCN1C(=O)C1CCCCNOC(=O)CC[C@@H](NC(=O)OCC2c3ccccc3-c3ccccc32)C(=O)NC(Cc2c[nH]c3ccccc23)C(=O)N1` (stereo not given in full) (Fmoc-[dE][ξW][X34][ξP]G-NH2; ester 1-3), the TGI in [1], in [2], in experiment [3], in experiment [4], in [5] and in experiment [6] was greater than 100 µM throughout. Also, the TGI in experiment [7], in experiment [8], in experiment [9] and in [10] was greater than 100 µM each time.
For the compound `Cc1nnc2n1N=C(c1cc(F)c(Cl)cc1Cl)/C(=C/c1ccc(Cl)cc1)S2`, the TGI in [1] is 40.5 µM; in experiment [2], 36 µM; in [3] it was 63.4 µM; in experiment [4], greater than 100 µM; in experiment [5], 44 µM; in [6], 25.4 µM. Also, the TGI is 31.2 µM in [7], greater than 100 µM in experiment [8], greater than 100 µM in experiment [9] and 28.6 µM in experiment [10].
Take `CC(C)c1ccc2[nH]c(O)c(-c3[nH]c4ccccc4c3N=O)c2c1`: the TGI is 6.66 µM in experiment [1]; 16.8 µM in [2]; 29.4 µM in experiment [3]; 25.4 µM in experiment [4]; 22.3 µM in experiment [5]; 15.6 µM in [6]. The TGI in experiment [7] amounted to 25.2 µM; in experiment [8], 25.2 µM; in experiment [9] it was 43.4 µM; in experiment [10], 16.6 µM.
Take `COc1ccc(-c2cc(-c3ccco3)c(C#N)c(=S)n2C2OC(COC(C)=O)C(OC(C)=O)C(OC(C)=O)C2OC(C)=O)cc1` (stereo not given): the TGI in [1] was 21.3 µM; in experiment [2] it was 24 µM; in [3], 16.5 µM; in [4], 21.7 µM; in [5] it was 22.8 µM; in experiment [6] it was 33.4 µM. Further, the TGI in [7] was found to be 8.88 µM; in [8], 93.2 µM; in [9] it was 45.1 µM; in experiment [10], 32.2 µM.
Regarding `CCCCCCCCCCCCCCCCCCNc1ccn(C2OC(COP(=O)(O)OCC3OC(n4ccc(NC(=O)CCCCCCCCCCCCCCCCC)nc4=O)C(OC(C)=O)C3OC(C)=O)C(OC(C)=O)C2OC(C)=O)c(=O)n1` (stereo not given), the TGI in [1], in [2], in experiment [3], in experiment [4], in experiment [5] and in experiment [6] was greater than 100 µM each time. Also, the TGI in [7], in experiment [8], in experiment [9] and in [10] was greater than 100 µM each time.
As to `COc1cccc(-c2cc(=O)c3ccccc3o2)c1N`, the TGI in experiment [1] was greater than 100 µM; in [2], greater than 100 µM; in [3], greater than 100 µM; in [4], greater than 57.3 µM; in experiment [5] it was greater than 100 µM; in experiment [6] it was greater than 100 µM. Further, the TGI in experiment [7], in experiment [8], in [9] and in experiment [10] was greater than 100 µM in each case.
For the compound `COc1ccc(N2C(=O)C3c4[nH]c5ccc(OCc6ccccc6)cc5c4C4CCC(C(C)(C)C)CC4C3C2=O)cc1` (stereo not given), the TGI in experiment [1] is greater than 100 µM; in [2], greater than 100 µM; in experiment [3] it was greater than 100 µM; in experiment [4], 55.5 µM; in [5], greater than 100 µM; in [6], greater than 100 µM. The TGI in experiment [7], in experiment [8], in experiment [9] and in [10] was greater than 100 µM in each case.
`Cc1c(-c2nc3ccccc3[nH]2)c(=O)n(-c2ccccc2)n1C`: the TGI in experiment [1], in experiment [2], in experiment [3], in experiment [4], in experiment [5] and in [6] was greater than 100 µM throughout. In addition, the TGI in experiment [7], in experiment [8], in experiment [9] and in experiment [10] was greater than 100 µM in each case.
`COc1cc(O)c(/C=N/N=C(\N)NO)c(OC)c1`: the TGI in [1], in experiment [2], in experiment [3], in experiment [4], in experiment [5] and in experiment [6] was greater than 10 µM each time. The TGI in experiment [7], in experiment [8], in [9] and in [10] was greater than 10 µM throughout.
As to `CCCCN1C(=O)CC2[C@@H]3CCc4cc(OC(C)=O)ccc4C3CC[C@]2(C)C1=O` (stereo not given in full), the TGI in experiment [1], in [2], in experiment [3], in [4], in experiment [5] and in experiment [6] was greater than 10 µM throughout. The TGI in experiment [7], in experiment [8], in experiment [9] and in [10] was greater than 10 µM in each case.
